Reference: patent US20220235421A1, “DETECTING AND TREATING CISPLATIN SENSITIVE CANCER” (The Cleveland Clinic Foundation, priority 2021, published 2022)

Test system: epithelial-based cancer cell lines (GDSC)
Experiment: Cell Line Persistence Curve of cisplatin IC50 in the GDSC dataset, by CisSig score cohort
Settings: cisplatin concentration approximately 5
From the text: FIG. 11C compares the distribution of IC50 between cohorts of GDSC cell lines in this top and bottom quintile of CisSig score. We are terming this plot a “Cell Line Persistence Curve”, which resembles a Kaplan-Meier survival curve, but uses IC50 in place of survival time for cell lines. […] For example, when cisplatin concentration reaches approximately 5 approximately 50% of the resistant cohort remains with a greater IC50, while only 20% of the sensitive cohort remains with a greater IC50. In other words, cell lines predicted to be resistant tend to have greater IC50 values and cell lines predicted to be sensitive tend to have lower IC50 values.
The drug response data in the GDSC database was last updated 27 Mar. 2018; this version is referred to as “GDSC2.” Cisplatin drug concentration is reported in μM. Raw viability data were processed using the R package, gdscIC50, where they were normalized with negative controls (media alone) and positive controls (media only wells with no cells). Dose-response curves were fit using a multi-level fixed effect model with a classic sigmoidal curve shape assumed. This model was fitted using all cell line/drug combinations that were screened instead of fitting separate models to individual drug-response series. […]

N.N.[Cl][Pt][Cl] [cisplatin]
proportion of the cohort remaining with a cisplatin IC50 greater than the cisplatin concentration (resistant cohort (bottom quintile of CisSig score)): approximately 50%
proportion of the cohort remaining with a cisplatin IC50 greater than the cisplatin concentration (sensitive cohort (top quintile of CisSig score)): 20%
